The results in this text go back to patent US20260184725A1, “CYCLIC 2-AMINOPYRIMIDINE COMPOUND AND PHARMACEUTICAL COMPOSITION AND USE THEREOF” (SHANGHAI INSTITUTE OF ORGANIC CHEMISTRY, CHINESE ACADEMY OF …, priority 2023, published 2026).

Series [1] has as its system PC-9-OR (19del/T790M/C797S). The experiment in a line: CCK-8 cell proliferation, PC-9-OR. The format is cell-based. Conditions: PC9-OR, read-out: Average value of IC50 of inhibition against EGFR-mutant cells growth, PC-9-OR (19del/T790M/C797S). The text has this: (§1) Ba/F3 cells were obtained from Deutsche Sammlung von Mikroorganismen und Zellkulturen GmbH (DSMZ). Ba/F3 cells stably expressing EGFR19del/T790M/C797S or EGFR L858R/T790M/C797S were generated by infecting parental cells with corresponding retroviruses. PC-9-OR was a tumor cell model obtained by simultaneously knocking in T790M and C797S mutations into 19del-activating mutation-dependent PC-9 tumor cells using CRISPR technology. This model, which proliferated dependent on EGFR19del/T790M/C797S resistance mutation, was used to evaluate the inhibitory activity of compounds against EGFR19del/T790M/C797S resistance mutants (Cancer Science. 2022; 113:709-720). All cells used in the study were verified by short tandem repeat (STR) analysis conducted by Genesky.
(§2) Tumor cell viability was assessed using a CCK-8 cell counting kit (A311-01/02, Vazyme, Nanjing, China). Cells were seeded at a density of 3000 cells per well into 96-well plates and cultured overnight. Subsequently, the cells were treated with compounds of different concentrations and incubated for 72 hours. After 72 hours, 10 μL of CCK-8 solution was added to each well. The plates were then returned to the incubator and incubated at 37° C. for 2 hours. The absorbance was measured at 450 nm using a microplate reader. A calibration curve was constructed using data obtained from wells containing known numbers of viable cells.

Series [2] addresses BaF3-EGFR (19del/T790M/C797S) (Homo sapiens, UniProt P00533, T790M/C797S, cells depend on it, form not given). Nature of the series: CCK-8 cell proliferation, BaF3-EGFR(19del/T790M/C797S). The format is cell-based. Conditions: CCK-8, 72 hours; read-out: Average value of IC50 of inhibition against EGFR-mutant cells growth, BaF3-EGFR (19del/T790M/C797S). Here is the method:
(§3) Ba/F3 cells were obtained from Deutsche Sammlung von Mikroorganismen und Zellkulturen GmbH (DSMZ). […] All cells used in the study were verified by short tandem repeat (STR) analysis conducted by Genesky.
as §2

The next series relates to BaF3 parent cell. The experiment in a line: CCK-8 cell proliferation, BaF3 parent cell. It is filed as cell-based. Conditions: Mus musculus, read-out: Average value of IC50 of inhibition against cells growth, BaF3 parent cell.
Text: as §1, §2

Series [3] has as its target BaF3-EGFR (L858R/T790M/C797S) (Homo sapiens, UniProt P00533, T790M/C797S/L858R, cells depend on it). The experiment in a line: CCK-8 cell proliferation, BaF3-EGFR(L858R/T790M/C797S). The format is cell-based. Conditions: CCK-8, 72 hours; read-out: Average value of IC50 of inhibition against EGFR-mutant cells growth, BaF3-EGFR (L858R/T790M/C797S). On the procedure: as §3, §2

A further series has as its target EGFR^L858R/T790M/C797S (Homo sapiens, UniProt P00533, C797S/L858R/T790M). The experiment in a line: ELISA kinase activity inhibition, EGFR L858R/T790M/C797S. The format is biochemical. Conditions: ATP 5 μM, read-out: The average IC50 value (nM) for inhibiting the activity of different tyrosine kinases, EGFR^L858R/T790M/C797S. On the procedure:
(§4) Enzyme-Linked Immunosorbent Assay (ELISA) was used to detect the inhibitory effect of compounds on kinase activity.
(§5) The main experimental steps were as follows: Enzyme reaction substrate Poly (Glu, Tyr)4:1 was diluted with potassium free PBS (10 mM sodium phosphate buffer, 150 mM NaCl, pH 7.2-7.4) to 20 μg/mL, and reacted at 37° C. for 12 hours to 16 hours to coat the enzyme-linked immunosorbent assay plate. ATP solution (final concentration 5 μM) diluted with reaction buffer (50 mM HEPES pH 7.4, 50 mM MgCl2, 0.5 mM MnCl2, 0.2 mM Na3VO4, 1 mM DTT) was added to each well, followed by the test compound or solvent control, then the kinase reaction was initiated and the plate was shaken at 37° C. for 1 hour. The plate was washed three times with T-PBS, then added antibody PY99. The plate was shaken at 37° C. for 0.5 hours. After washing the plate with T-PBS, added horseradish peroxidase-labeled IgG and shaken at 37° C. for 0.5 hours. After washing the plate again, added 2 mg/mL of OPD colorimetric solution and incubated at 25° C. in the dark for 1 minutes to 10 minutes. […] The IC50 values were obtained from the inhibition curve analysis.

A further series has as its target T1, EGFR^WT (Homo sapiens, UniProt P00533).
T1 construct: purchased Eurofins
The experiment in a line: ELISA kinase activity inhibition, wild-type EGFR. It is filed as biochemical. Conditions: ATP 5 μM, read-out: The average IC50 value (nM) for inhibiting the activity of different tyrosine kinases, EGFR^WT. Here is the method:
(§6) EGFR (WT) is a wild-type epidermal growth factor receptor.
as §4, §5

The next series has as its target T2, EGFR^19del/T790M/C797S (Homo sapiens, UniProt P00533, T790M/C797S, form not given).
T2 construct: fused on or other part: Probably a GST tag on the cytoplasmic fragment, as in the vendor's product
Nature of the series: ELISA kinase activity inhibition, EGFR 19del/T790M/C797S. The format is biochemical. The note with it: ATP 5 μM, read-out: The average IC50 value (nM) for inhibiting the activity of different tyrosine kinases, EGFR^19del/T790M/C797S. Here is the method:
as §6, §4, §5
In general terms: An ELISA detects its analyte on a solid surface through an enzyme-linked reagent.

The nature of series [4]: Pharmacokinetic parameters in rats. The format is in vivo. The note with it: male, Sprague-Dawley, plasma, rat. Here is the method:
Sprague-Dawley rats (males, 3 per group), weighing 180 g to 220 g, were administered test compounds intravenously and orally at doses of 1 mg/kg and 5 mg/kg, respectively. The compounds were dissolved in a mixed solvent (5% DMSO+10% Solutol+85% PBS) for intravenous injection. 0.5% CMC-Na solution (800 cps to 1200 cps) was used as a suspension agent for oral administration. At designated time points, 0.2 mL of blood samples were collected via the jugular vein and placed into tubes containing K2-EDTA, stored on ice, and then centrifuged. Sampling intervals for the injection group were 0.083, 0.25, 0.5, 1, 2, 4, 8, and 24 hours, while for the oral group, sampling intervals were 0.25, 0.5, 1, 2, 4, 6, 8, and 24 hours. The blood samples were centrifuged at 6800 g for 6 minutes at 2° C. to 8° C. within 1 hour after collection and stored frozen at approximately −80° C. Subsequently, 200 μL of MeOH was used to precipitate 20 μL of plasma samples containing 100 ng/mL IS. The mixture was vortexed for 1 minute and then centrifuged at 18000 g for 7 minutes. 200 μL of the supernatant was transferred to a 96-well plate, and 1 μL of the supernatant sample was injected for LC-MS/MS analysis. Finally, Phoenix WinNonlin7.0 software was used to calculate the pharmacokinetic (PK) parameters.

Where two headings read alike, the source gives them in different places.

T2 sequence (P00533 with tags, fused parts or gaps DEL746-750/T790M/C797S, form open): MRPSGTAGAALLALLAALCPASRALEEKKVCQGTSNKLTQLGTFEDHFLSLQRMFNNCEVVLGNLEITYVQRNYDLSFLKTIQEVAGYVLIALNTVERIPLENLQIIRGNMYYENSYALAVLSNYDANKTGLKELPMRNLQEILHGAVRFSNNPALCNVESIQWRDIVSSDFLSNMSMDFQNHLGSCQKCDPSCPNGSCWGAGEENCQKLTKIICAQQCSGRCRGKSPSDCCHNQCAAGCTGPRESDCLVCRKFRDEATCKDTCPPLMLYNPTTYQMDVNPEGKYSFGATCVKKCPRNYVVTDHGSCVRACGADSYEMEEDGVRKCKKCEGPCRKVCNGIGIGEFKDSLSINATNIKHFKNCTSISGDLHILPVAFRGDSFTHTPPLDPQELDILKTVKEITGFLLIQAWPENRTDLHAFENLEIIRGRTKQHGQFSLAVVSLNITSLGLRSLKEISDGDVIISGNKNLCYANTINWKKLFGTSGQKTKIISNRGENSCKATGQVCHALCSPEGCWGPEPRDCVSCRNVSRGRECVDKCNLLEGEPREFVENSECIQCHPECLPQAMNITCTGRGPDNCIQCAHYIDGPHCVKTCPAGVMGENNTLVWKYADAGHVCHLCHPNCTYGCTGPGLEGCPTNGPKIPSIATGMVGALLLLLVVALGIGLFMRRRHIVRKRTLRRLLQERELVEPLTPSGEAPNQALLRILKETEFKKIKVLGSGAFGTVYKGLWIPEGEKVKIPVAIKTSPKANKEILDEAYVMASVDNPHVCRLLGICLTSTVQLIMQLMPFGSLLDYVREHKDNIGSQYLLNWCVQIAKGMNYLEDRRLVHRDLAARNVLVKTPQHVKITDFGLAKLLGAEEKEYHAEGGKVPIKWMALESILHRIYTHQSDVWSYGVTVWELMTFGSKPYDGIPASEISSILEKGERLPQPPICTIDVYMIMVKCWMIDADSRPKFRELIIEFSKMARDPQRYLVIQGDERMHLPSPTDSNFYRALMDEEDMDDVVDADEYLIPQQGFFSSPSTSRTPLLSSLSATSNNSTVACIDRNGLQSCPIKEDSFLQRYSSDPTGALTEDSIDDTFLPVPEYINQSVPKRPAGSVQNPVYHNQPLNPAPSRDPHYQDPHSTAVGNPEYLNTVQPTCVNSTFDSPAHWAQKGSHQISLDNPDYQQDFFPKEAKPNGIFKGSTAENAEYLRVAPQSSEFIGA
Chain of BaF3-EGFR (19del/T790M/C797S) (P00533 with tags, fused parts or gaps DEL746-750/T790M/C797S, form open): as above
Chain of EGFR^L858R/T790M/C797S (P00533 25-1210 T790M/C797S/L858R): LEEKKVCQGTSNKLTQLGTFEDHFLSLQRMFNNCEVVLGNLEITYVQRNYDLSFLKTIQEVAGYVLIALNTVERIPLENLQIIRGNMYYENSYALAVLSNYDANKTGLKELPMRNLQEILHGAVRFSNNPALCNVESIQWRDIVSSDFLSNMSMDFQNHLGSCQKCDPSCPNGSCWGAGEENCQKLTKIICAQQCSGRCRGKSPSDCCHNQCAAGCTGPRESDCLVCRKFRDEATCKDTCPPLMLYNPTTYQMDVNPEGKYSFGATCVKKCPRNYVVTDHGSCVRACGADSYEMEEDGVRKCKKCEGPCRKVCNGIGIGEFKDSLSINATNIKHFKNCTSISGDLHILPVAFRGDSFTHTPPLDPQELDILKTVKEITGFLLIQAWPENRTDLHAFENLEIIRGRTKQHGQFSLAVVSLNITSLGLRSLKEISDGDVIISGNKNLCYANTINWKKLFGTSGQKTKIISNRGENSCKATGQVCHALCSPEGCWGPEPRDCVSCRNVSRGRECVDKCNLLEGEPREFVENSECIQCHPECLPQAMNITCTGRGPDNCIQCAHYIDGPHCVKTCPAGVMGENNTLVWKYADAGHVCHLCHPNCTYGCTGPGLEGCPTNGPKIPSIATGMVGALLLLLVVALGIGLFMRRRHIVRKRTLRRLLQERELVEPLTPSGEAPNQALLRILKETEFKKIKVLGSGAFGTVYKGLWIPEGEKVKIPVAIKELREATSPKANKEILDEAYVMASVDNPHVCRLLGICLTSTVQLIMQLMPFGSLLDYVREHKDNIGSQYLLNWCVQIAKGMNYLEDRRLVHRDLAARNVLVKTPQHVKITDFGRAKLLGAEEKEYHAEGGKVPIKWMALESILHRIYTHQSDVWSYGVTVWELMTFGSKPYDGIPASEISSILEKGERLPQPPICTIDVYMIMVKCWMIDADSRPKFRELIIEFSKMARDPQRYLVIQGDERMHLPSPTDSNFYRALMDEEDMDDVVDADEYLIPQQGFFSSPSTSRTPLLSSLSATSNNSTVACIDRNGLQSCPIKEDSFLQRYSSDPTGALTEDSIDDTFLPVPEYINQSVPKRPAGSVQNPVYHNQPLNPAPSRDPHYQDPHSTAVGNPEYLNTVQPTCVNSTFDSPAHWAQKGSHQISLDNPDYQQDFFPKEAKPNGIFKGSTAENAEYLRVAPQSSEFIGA
Chain of BaF3-EGFR (L858R/T790M/C797S) (P00533 whole entry T790M/C797S/L858R): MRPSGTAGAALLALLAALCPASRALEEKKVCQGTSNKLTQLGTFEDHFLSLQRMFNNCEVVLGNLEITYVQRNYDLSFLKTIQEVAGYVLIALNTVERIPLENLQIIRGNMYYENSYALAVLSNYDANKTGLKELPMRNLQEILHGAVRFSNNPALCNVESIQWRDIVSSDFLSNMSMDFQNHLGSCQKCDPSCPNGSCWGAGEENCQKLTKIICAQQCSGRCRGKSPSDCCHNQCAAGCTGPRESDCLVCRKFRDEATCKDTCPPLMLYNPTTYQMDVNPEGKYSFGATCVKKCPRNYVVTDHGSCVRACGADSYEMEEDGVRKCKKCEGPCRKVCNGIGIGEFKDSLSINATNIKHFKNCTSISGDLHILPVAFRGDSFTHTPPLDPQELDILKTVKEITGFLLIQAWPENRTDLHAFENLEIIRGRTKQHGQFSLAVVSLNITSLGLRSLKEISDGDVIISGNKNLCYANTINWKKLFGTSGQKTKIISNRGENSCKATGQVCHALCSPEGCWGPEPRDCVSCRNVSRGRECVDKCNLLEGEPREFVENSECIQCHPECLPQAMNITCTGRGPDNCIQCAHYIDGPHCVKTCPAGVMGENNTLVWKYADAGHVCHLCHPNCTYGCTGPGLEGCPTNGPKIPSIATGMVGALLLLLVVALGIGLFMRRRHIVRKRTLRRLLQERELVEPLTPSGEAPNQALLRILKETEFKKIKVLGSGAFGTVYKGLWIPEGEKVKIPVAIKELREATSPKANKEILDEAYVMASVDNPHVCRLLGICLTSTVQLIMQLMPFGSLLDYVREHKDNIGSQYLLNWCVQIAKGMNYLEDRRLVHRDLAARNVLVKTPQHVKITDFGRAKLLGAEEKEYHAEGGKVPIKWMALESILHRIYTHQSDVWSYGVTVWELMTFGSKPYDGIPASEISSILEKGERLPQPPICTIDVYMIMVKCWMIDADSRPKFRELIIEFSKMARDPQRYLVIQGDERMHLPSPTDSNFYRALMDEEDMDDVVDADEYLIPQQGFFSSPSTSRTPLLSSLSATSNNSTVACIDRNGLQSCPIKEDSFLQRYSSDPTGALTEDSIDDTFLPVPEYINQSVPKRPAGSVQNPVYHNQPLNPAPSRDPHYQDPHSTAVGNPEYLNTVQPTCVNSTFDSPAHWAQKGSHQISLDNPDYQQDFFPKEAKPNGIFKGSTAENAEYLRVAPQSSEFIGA

For the molecule `COc1cc(N2CCC(N3CCN(C)CC3)CC2)ccc1Nc1ncc(Cl)c(Nc2ccccc2P(C)(C)=O)n1` [Brigatinib, reference compound], the IC50 amounted to 1.45 µM in series [1] (72 h) and 1.48 µM in the series with BaF3 parent cell (BaF3, 72 h). Also, the GI50 in series [2] is 0.221 µM; in series [3] it was 0.777 µM.

In the case of `CCc1cc(N2CCOCC2)c2cc1Nc1nccc(n1)-c1cn(S(=O)(=O)CC)c3cc(ccc13)OCCCn1ccc-2n1` [FBH-3-47, (Z)-4^6-ethyl-1^1-(ethylsulfonyl)-4^4-morpholino-1^1H,5^1H-9-oxa-3-aza-1(3,6)-indole-2(4,2)-pyrimidine-5(4,1)-pyrazol-4(1,3)-benzenacyclononaphane], the IC50 was 54.8 nM on EGFR^L858R/T790M/C797S; more than 1000 nM at EGFR^WT; 2.23 µM in the series with BaF3 parent cell (BaF3, CCK-8, 72 hours); 23.3 nM at EGFR^19del/T790M/C797S. For the same molecule, the GI50 in series [2] stood at 0.229 µM; in series [3], 0.327 µM.

Consider `CCOc1cc(N2CCOCC2)c2cc1Nc1nccc(n1)-c1cn(S(=O)(=O)CC)c3cc(ccc13)OCCCn1cc-2cn1` [HC9596, (Z)-4^6-ethoxy-1^1-ethylsulfonyl-4^4-morpholino-1^1H,5^1H-9-oxa-3-aza-1(3,6)-indole-2(4,2)-pyrimidine-5(4,1)-pyrazole-4(1,3)-benzenacyclononaphane], for which the IC50 is 11.8 nM on EGFR^L858R/T790M/C797S; 186 nM at EGFR^WT; 3.19 µM with BaF3 parent cell (BaF3, CCK-8, 72 hours); 7.4 nM at EGFR^19del/T790M/C797S. The GI50 in series [2] is 0.371 µM; in series [3], 0.455 µM.

`CCS(=O)(=O)n1cc2c3ccc(cc31)OCCCn1cc(cn1)-c1cc(cc(CC(C)C)c1N1CCOCC1)Nc1ncc(Cl)c-2n1` [HC90032, 2^5-chloro-1^1-ethylsulfonyl-4^4-morpholino-4^5-2-methylpropyl-1^1H,5^1H-9-oxa-3-aza-1(3,6)-indole-2(4,2)-pyrimidin-5(4,1)-pyrazol-4(1,3)-benzenacyclononaphane]: the IC50 on EGFR^L858R/T790M/C797S was 343 nM; on EGFR^WT, more than 1000 nM; at EGFR^19del/T790M/C797S, 192 nM.

Consider `CCS(=O)(=O)n1cc2c3ccc(cc31)OCCCn1cc(cn1)-c1cc(cc(CCC(C)(C)C)c1N1CCOCC1)Nc1ncc(Cl)c-2n1` [HC90042, 2^5-chloro-4^5-(E)-3,3-dimethylbutyl)-1^1-ethylsulfonyl-4^4-morpholin-1^1H,5^1H-9-oxa-3-aza-1(3,6)-indole-2(4,2)-pyrimidin-5(4,1)-pyrazolol-4 (1,3)-benzenacyclononaphane], for which the IC50 at EGFR^L858R/T790M/C797S, on EGFR^WT and at EGFR^19del/T790M/C797S was more than 1000 nM throughout.

Take `C=CC(=O)Nc1cc(Nc2nccc(-c3cn(C)c4ccccc34)n2)c(OC)cc1N(C)CCN(C)C` [Osimertinib, reference compound]: the IC50 was 2.1 µM in series [1] (CCK-8, 72 hours) and 2.37 µM in the series with BaF3 parent cell (BaF3, CCK-8, 72 hours).

As to `CCS(=O)(=O)n1cc2c3ccc(cc31)OCC(C)Cn1cc(cn1)-c1cc(c(OC)cc1N1CCOCC1)Nc1nccc-2n1` (centres unmarked) [WQX-1-80, (Z)-1^1-(ethylsulfonyl)-4^6-Methoxy-7-methyl-4^4-morpholino-1^1H,5^1H-9-oxa-3-aza-1(3,6)-indole-2(4,2)-pyrimidin-5(4,1)-pyrazol-4(1,3)-benzenacyclononaphane], the IC50 on EGFR^L858R/T790M/C797S is 53.2 nM; at EGFR^WT, more than 1000 nM; with BaF3 parent cell (BaF3, CCK-8, 72 hours), 1.87 µM; on EGFR^19del/T790M/C797S, 23.3 nM. The figures for the GI50 in series [2] and in series [3] were 0.311 µM and 0.734 µM, respectively.

`CCS(=O)(=O)n1cc2c3ccc(cc31)OC(C)CCn1cc(cn1)-c1cc(c(OC)cc1N1CCOCC1)Nc1nccc-2n1` (centres unmarked) [WQX-1-86, (Z)-1^1-(ethylsulfonyl)-4^6-methoxy-8-methyl-4^4-morpholino-1^1H,5^1H-9-oxa-3-aza-1(3,6)-indole-2(4,2)-pyrimidin-5(4,1)-pyrazol-4(1,3)-benzenacyclononaphane]: the IC50 is 12.6 nM at EGFR^L858R/T790M/C797S; more than 1000 nM at EGFR^WT; 2 µM with BaF3 parent cell (BaF3, CCK-8, 72 hours); 8.2 nM on EGFR^19del/T790M/C797S. Besides, in series [2], the GI50 turned out to be 0.465 µM.

`CCS(=O)(=O)n1cc2c3ccc(cc31)OCC1(CC1)Cn1cc(cn1)-c1cc(c(OC)cc1N1CCOCC1)Nc1nccc-2n1` [WQX-1-87, (Z)-1′-(ethylsulfonyl)-6′-methoxy-4′-morpholino spiro[cyclopropane-7′-9-oxa-3-aza-1(3,6)-indole-2(4,2)-pyrimidin-5(4,1)-pyrazol-4(1,3)-benzenacyclononaphane]]: the IC50 on EGFR^L858R/T790M/C797S was 63.3 nM; at EGFR^WT, more than 1000 nM; on EGFR^19del/T790M/C797S, 33 nM.

As for `CCS(=O)(=O)n1cc2c3ccc(cc31)OCCCn1cc(cn1)-c1cc(c(OC)cc1CN1CCOCC1)Nc1nccc-2n1` [WQX-2-35, (Z)-1^1-(ethylsulfonyl)-4^6-methoxy-4^4-(morpholinomethyl)-1^1H,5^1H-9-oxa-3-aza-1(3,6)-indole-2(4,2)-pyrimidine-5(4,1)-pyrazole-4(1,3)-benzocyclononane], the IC50 on EGFR^L858R/T790M/C797S amounted to 14.1 nM; at EGFR^WT it was 141 nM; on EGFR^19del/T790M/C797S, 1 nM.

As to `CCS(=O)(=O)n1cc2c3ccc(cc31)OCCCCCCOc1cc(ccc1N1CCOCC1)Nc1ncc(Cl)c-2n1` [reference compound], the IC50 at EGFR^L858R/T790M/C797S came to 14.4 nM; on EGFR^WT, 190 nM; at EGFR^19del/T790M/C797S, 9 nM.

In series [4] (IV 1 mg/kg), `CCS(=O)(=O)n1cc2c3ccc(cc31)OCCCCCCOc1cc(c(C)cc1N1CCOCC1)Nc1ncc(Cl)c-2n1` [reference compound] gave a Cmax of 2420 ± 165 ng/mL, a clearance of 16.2 ± 1.4 mL/min/kg and a half-life of 1.35 ± 0.18 h. In addition, in series [4] (PO 5 mg/kg), the maximum concentration (Cmax) was 135 ng/mL and the half-life was 2.57 h. Further, the bioavailability in series [4] (PO 5 mg/kg, read-out: F (oral bioavailability)) was 11.9%.

A word on the Cmax: it is the highest concentration seen after dosing. By clearance is commonly meant the volume of plasma or blood freed of the substance per unit of time. Higher therefore signals a high capacity for elimination. As usually defined, the half-life is how long it takes for the measured level to halve. Read a low half-life as rapid decline. A word on the bioavailability: it is dose-corrected exposure relative to a reference, in per cent.
